In article PMC3436870, “The Conserved Residue Arg46 in the N-Terminal Heptad Repeat Domain of HIV-1 gp41 Is Critical for Viral Fusion and Entry” (PLoS ONE, 2012) one finds IC50 data, which are given here for two sequences.

In test [1] the test system is HIV-1IIIB-mediated cell-cell fusion (H9/HIV-1IIIB-infected cells with MT-2 cells). The class given is cell-based. The following applies: calcein-AM-labeled H9/HIV-1IIIB-infected cells with MT-2 cells (ratio 1:5), 37°C, 2 h; fused cells counted under fluorescence microscope; read-out: IC50 (nM) for inhibition of HIV-1IIIB-mediated cell-cell fusion. From the text: To detect HIV-1 mediated cell-cell fusion, we performed a dye transfer assay as previously described. […] Then under an inverted fluorescence microscope (Zeiss, Germany) with an eyepiece micrometer disc, we calculated the fused and unfused calcein-labeled HIV-1-infected cells. Previously developed methods were applied to calculate the percent inhibition of cell-cell fusion and the IC50 values.

For another test, the system named is HIV-1 IIIB. The test can be described thus: Inhibition of HIV-1IIIB infection of MT-2 cells, p24 ELISA. It is filed as cell-based. As to conditions: HIV-1 IIIB at 100 TCID50, peptide overnight, p24 antigen ELISA on fourth day post-infection. The method, then:
The inhibitory activity of the NHR- and CHR-peptides on HIV-1IIIB infection was determined as previously described. In brief, 1×10^4 MT-2 cells were infected with HIV-1 IIIB at 100 TCID50 (50% tissue culture infective dose) in 200 µl culture medium in the presence or absence of the test peptide overnight. Then the culture supernatants were removed, and fresh media were added. On the fourth day post-infection, 100 µl of culture supernatants were collected from each well, mixed with equal volumes of 5% Triton X-100 and assayed for p24 antigen by an in-house ELISA as described before.

Ends that are not written are not given here.

The term IC50 denotes the point on the concentration scale where inhibition reaches its midpoint. “WMEWDREINNYTSLIHSLIEASQNQQEKNEQELL [C34 E137A]”: the IC50 in test [1] is 4.681 ± 0.029 nM; with HIV-1 IIIB, 12.2 ± 1.28 nM.

Regarding “WMEWDREINNYTSLIHSLIERSQNQQEKNEQELL [C34 E137R]”, the IC50 was 5.32 ± 1.29 nM in test [1] and 22.1 ± 1.8 nM in the test with HIV-1 IIIB.
